In patent US20090311217A1, “3-SUBSTITUTED-1H-INDOLE COMPOUNDS, THEIR USE AS MTOR KINASE AND PI3 KINASE INHIBITORS, AND THEIR SYNTHESES” (priority 2008, published 2009):
Where two headings read alike, the source gives them in different places.

Legend:
Format in all cases: biochemical
PI3K-alpha = PI3K-alpha (Homo sapiens, UniProt P42336); assay: PI3K-alpha fluorescence polarization assay
PI3K-gamma = PI3K-gamma (Homo sapiens, UniProt P48736); assay: PI3K-gamma fluorescence polarization assay
Method in brief: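 Each isoform (5 ng) phosphorylated 2.5 μM diC8-PI(4,5)P2 at 25 μM ATP for one hour at 25° C in the presence of inhibitor. Reactions were then stopped with EDTA, and product was detected by fluorescence polarization using a GST-GRP1 PH domain and a BODIPY-TMR-labelled IP4 tracer.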

human TOR = target: T1, human TOR (Homo sapiens, UniProt P42345); assay: mTOR enzyme assay (DELFIA, His6-S6K substrate); settings: read-out: mTOR Kinase Avg. IC50
T1 construct: FLAG

Chain of PI3K-gamma (P48736 whole entry, species assumed, the tested form may be a part, canonical isoform): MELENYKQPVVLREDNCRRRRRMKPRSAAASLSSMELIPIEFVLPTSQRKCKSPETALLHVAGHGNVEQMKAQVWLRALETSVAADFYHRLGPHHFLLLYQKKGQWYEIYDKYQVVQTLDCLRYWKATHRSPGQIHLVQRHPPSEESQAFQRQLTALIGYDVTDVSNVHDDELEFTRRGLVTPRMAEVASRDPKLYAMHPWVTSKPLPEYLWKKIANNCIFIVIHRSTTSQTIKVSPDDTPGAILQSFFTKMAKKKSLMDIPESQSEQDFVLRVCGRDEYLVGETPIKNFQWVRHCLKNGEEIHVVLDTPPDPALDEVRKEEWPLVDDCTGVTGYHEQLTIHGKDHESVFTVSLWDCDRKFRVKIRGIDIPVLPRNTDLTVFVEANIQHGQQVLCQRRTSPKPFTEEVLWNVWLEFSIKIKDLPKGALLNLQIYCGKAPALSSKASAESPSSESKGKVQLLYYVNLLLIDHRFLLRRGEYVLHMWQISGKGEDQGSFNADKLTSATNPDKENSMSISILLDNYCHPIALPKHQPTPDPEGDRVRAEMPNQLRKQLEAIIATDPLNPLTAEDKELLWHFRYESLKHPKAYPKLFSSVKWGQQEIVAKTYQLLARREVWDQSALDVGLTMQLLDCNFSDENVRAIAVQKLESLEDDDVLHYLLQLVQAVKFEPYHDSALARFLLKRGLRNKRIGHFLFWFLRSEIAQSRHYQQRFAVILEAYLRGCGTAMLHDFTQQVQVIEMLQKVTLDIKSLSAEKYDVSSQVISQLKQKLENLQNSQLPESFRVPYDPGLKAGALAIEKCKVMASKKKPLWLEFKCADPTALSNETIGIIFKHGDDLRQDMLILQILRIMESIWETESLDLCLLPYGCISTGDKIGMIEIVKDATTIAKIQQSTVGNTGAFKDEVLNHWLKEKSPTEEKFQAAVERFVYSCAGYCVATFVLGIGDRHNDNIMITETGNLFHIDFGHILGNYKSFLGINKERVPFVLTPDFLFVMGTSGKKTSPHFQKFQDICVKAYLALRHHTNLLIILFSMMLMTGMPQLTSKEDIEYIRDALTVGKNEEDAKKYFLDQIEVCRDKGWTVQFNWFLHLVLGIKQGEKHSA
Chain of PI3K-alpha (P42336 whole entry, species assumed): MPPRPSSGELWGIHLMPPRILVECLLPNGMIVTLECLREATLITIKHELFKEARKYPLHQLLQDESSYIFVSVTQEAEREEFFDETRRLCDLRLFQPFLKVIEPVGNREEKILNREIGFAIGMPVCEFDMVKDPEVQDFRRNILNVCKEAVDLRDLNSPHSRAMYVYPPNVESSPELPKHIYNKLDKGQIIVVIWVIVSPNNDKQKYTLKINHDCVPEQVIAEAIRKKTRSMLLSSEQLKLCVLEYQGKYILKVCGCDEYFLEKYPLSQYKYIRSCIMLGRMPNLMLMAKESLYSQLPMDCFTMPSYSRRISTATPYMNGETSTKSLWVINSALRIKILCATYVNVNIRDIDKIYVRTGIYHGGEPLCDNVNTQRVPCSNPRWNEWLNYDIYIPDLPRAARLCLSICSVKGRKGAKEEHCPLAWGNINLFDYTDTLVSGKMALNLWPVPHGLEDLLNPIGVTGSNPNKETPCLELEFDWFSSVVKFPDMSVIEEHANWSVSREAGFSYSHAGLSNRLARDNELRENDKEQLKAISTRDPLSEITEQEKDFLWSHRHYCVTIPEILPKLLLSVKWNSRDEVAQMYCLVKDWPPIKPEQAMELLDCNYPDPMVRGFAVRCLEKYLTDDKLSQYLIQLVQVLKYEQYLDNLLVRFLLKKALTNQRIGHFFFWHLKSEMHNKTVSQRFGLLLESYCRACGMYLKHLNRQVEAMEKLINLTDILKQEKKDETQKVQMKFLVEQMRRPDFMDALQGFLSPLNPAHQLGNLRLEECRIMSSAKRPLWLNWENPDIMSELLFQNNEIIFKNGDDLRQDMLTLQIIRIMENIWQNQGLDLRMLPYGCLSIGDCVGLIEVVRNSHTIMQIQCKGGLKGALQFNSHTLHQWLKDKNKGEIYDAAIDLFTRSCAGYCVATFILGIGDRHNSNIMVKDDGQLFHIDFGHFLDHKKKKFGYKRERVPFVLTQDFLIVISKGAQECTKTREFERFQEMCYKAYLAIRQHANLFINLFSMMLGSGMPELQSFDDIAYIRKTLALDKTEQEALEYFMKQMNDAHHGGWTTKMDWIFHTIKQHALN
Chain of PI3K-alpha (P27986 whole entry partner, species assumed): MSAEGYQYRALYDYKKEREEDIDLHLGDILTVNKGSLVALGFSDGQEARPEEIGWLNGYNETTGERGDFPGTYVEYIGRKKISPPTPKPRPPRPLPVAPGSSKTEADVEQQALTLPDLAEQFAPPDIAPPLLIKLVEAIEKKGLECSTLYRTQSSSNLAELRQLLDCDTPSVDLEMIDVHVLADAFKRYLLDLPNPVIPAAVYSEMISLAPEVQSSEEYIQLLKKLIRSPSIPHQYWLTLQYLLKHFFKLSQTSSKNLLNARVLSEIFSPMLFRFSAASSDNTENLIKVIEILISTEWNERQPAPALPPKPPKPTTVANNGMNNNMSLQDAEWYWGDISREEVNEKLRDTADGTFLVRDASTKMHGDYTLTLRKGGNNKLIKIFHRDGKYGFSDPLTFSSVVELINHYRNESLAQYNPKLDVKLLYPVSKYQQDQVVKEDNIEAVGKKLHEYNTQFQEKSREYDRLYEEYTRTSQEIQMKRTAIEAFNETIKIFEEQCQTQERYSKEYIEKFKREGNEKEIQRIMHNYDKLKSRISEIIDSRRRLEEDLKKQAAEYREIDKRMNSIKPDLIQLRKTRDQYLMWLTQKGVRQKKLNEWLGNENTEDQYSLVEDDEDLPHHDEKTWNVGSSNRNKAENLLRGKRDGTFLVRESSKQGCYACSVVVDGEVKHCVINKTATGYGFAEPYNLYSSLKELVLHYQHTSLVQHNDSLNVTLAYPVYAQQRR

IC50 (PI3K-alpha; read-out: PI3Kα Avg. IC50)	IC50 (PI3K-gamma; PI3Kγ Avg. IC50)	IC50 (human TOR)	IC50 (PI3K-gamma; read-out: PI3Kγ Avg. IC50)	SMILES	IC50 (PI3K-alpha; PI3Kα Avg. IC50)
708 nM	> 10000 nM	31.5 nM		Cn1cc(/C=C2\Oc3cc(O)cc(O)c3C2=O)c2c(-c3ccc([N+](=O)[O-])cc3)cccc21 [Example 420, (2Z)-4,6-Dihydroxy-2-{[1-methyl-4-(4-nitrophenyl)-1H-indol-3-yl]methylene}-1-benzofuran-3(2H)-one]	
1650 nM	> 10000 nM	670 nM		N#CCCCn1c(-c2cccnc2)c(C=C2Oc3cc(O)cc(O)c3C2=O)c2ccccc21 [Example 226, 4-{3-[(4,6-dihydroxy-3-oxo-1-benzofuran-2(3H)-ylidene)methyl]-2-pyridin-3-yl-1H-indol-1-yl}butanenitrile]	
1.9 nM		49 nM	246 nM	COc1ccc2c(c1)c(/C=C1\Oc3ccc(NC(=O)Nc4cccnc4)cc3C1=O)c(C)n2CCN1CCN(C)CC1 [Compound 632, 1-[(2Z)-2-({5-methoxy-2-methyl-1-[2-(4-methylpiperazin-1-yl)ethyl]-1H-indol-3-yl}methylidene)-3-oxo-2,3-dihydro-1-benzofuran-5-yl]-3-pyridin-3-ylurea]	
0.2 nM	2.5 nM	4 nM		COc1ccc2[nH]c(-c3c(C)nn(C)c3C)c(/C=C3\Oc4ccc(NC(=O)Nc5ccc(C(=O)N6CCN(C)CC6)cc5)cc4C3=O)c2c1 [Compound 689, 1-[(2Z)-2-{[5-methoxy-2-(1,3,5-trimethyl-1H-pyrazol-4-yl)-1H-indol-3-yl]methylidene}-3-oxo-2,3-dihydro-1-benzofuran-5-yl]-3-{4-[(4-methylpiperazin-1-yl)carbonyl]phenyl}urea]	
805 nM	> 10000 nM	69.5 nM		Cn1cc(/C=C2\Oc3cc(O)cc(O)c3C2=O)c2c(-c3ccc(C(=O)NCc4ccco4)cc3)cccc21 [Example 399, 4-{3-[(Z)-(4,6-dihydroxy-3-oxo-1-benzofuran-2(3H)-ylidene)methyl]-1-methyl-1H-indol-4-yl}-N-(2-furylmethyl)benzamide]	
0.95 nM	52 nM	35 nM		CNC(=O)Nc1ccc2c(c1)C(=O)/C(=C/c1c(-c3c(C)nn(C)c3C)n(CCN3CCNCC3)c3ccc(OC)cc13)O2 [Compound 656, 1-[(2Z)-2-{[5-methoxy-1-(2-piperazin-1-ylethyl)-2-(1,3,5-trimethyl-1H-pyrazol-4-yl)-1H-indol-3-yl]methylene}-3-oxo-2,3-dihydro-1-benzofuran-5-yl]-3-methylurea]	
0.5 nM	2.55 nM	1 nM		COc1cc(F)c2[nH]c(-c3c(C)nn(C)c3C)c(/C=C3\Oc4ccc(NC(=O)NCCN)cc4C3=O)c2c1 [Compound 715, 1-(2-aminoethyl)-3-[(2Z)-2-{[7-fluoro-5-methoxy-2-(1,3,5-trimethyl-1H-pyrazol-4-yl)-1H-indol-3-yl]methylidene}-3-oxo-2,3-dihydro-1-benzofuran-5-yl]urea]	
496 nM	4070 nM	7 nM		Cn1cc(/C=C2\Oc3cc(O)cc(O)c3C2=O)c2c(-c3ccc(C(N)=O)cc3)cccc21 [Example 377, 4-{3-[(Z)-(4,6-Dihydroxy-3-oxo-1-benzofuran-2(3H)-ylidene)methyl]-1-methyl-1H-indol-4-yl}benzamide]	
1090 nM	3930 nM	75.5 nM		Cn1cc(/C=C2\Oc3cc(O)cc(O)c3C2=O)c2c(-c3ccccc3F)cccc21 [Example 366, (2Z)-2-{[4-(2-Fluorophenyl)-1-methyl-1H-indol-3-yl]methylene}-4,6-dihydroxy-1-benzofuran-3(2H)-one]	

SMILES	IC50 (PI3K-alpha; read-out: PI3Kα Avg. IC50)	IC50 (PI3K-gamma; PI3Kγ Avg. IC50)	IC50 (human TOR)	IC50 (PI3K-gamma; read-out: PI3Kγ Avg. IC50)	IC50 (PI3K-alpha; PI3Kα Avg. IC50)
O=C1/C(=C/c2c[nH]c3ccc(Cl)cc23)Oc2cc(O)cc(O)c21 [Example 60, (2Z)-2-[(5-chloro-1H-indol-3-yl)methylene]-4,6-dihydroxy-1-benzofuran-3(2H)-one]		3630 nM	11000 nM		492 nM
